Reference: publication PMC3486420, “In Vitro and In Vivo Characterizations of Chiglitazar, a Newly Identified PPAR Pan-Agonist” (PPAR Research, 2012)

Tests used:
[1] = tested on: beagle dogs; test: Heart weight in beagle dogs, chronic treatment; format: in vivo, dog; details: same regime (6 months), 54 mg kg^−1 (~1000 mg/m^2), data not shown
[2] = tested on: db/db mice; test: Gene expression by RT-PCR in tissues of treated db/db mice; format: in vivo, mouse; details: 14 days oral, chiglitazar 20 mg kg^−1 compared with rosiglitazone 5 mg kg^−1
Experimental: Total RNA was extracted from cells or tissues with an RNeasy minikit (Qiagen, Valencia, CA, USA). The first-strand cDNA was synthesized using the oligo(dT) primers, followed by using SuperScript II reverse transcriptase (Invitrogen) according to the manufacturer's instructions. The PCR amplifications were performed in 10 μL of reaction mixture volume containing 0.8 μL of cDNA, 10 mM Tris-HCl (pH 8.3), 50 mM KCl, 1.5 mM MgCl2, 0.1% Triton X-100, 0.2 mM deoxynucleotide triphosphates, 0.4 μM primers, and 0.25 U of Taq polymerase (TaKaRa Biotechnology Co., Ltd, China). Taq DNA polymerase was added to each tube after a treatment of 2 min at 94°C. This was followed by 22–30 cycles of denaturation (23 s at 94°C), annealing (20 s at 55°C), extension (30 s at 72°C), and a final extension step of 2 min. PCR products were analyzed by electrophoresis on a 1.5% agarose gel stained with ethidium bromide.
Male db/db mice (BKS.Cg-m +/+ LEPR^db) in 6-7 weeks were purchased from The Jackson Laboratory (Bar Harbor, ME, USA). Male KKAy and C57BL/6J mice in 8–10 weeks were obtained from the Institute of Animal Science, Chinese Academy of Medical Sciences and Peking Union Medical College (Beijing, China). […] Plasma glucose levels were examined at various time points by Accu-Chek Advantage II Glucose Strips (Roche Diagnostics, Basel, Switzerland) and measured by Accu-Chek Advantage (Roche Diagnostics). […]

[3] = tested on: 3T3-L1 cells; test: Gene expression by RT-PCR in 3T3-L1 cells; format: cell-based, mouse; details: 48 h, 10 μM rosiglitazone, 10 μM chiglitazar, vs vehicle
Excerpt: cDNAs for human retinoid X receptor (hRXR), PPARα, PPARγ, and PPARδ were obtained by reverse transcriptase polymerase chain reaction (RT-PCR) from human liver or adipose tissues. Amplified cDNAs were cloned into pcDNA3.1 expression vector (Invitrogen, Carlsbad, CA, USA). The integrity and fidelity of all constructs made were verified by DNA sequencing. Luciferase reporter plasmids, ACOX promoter for PPARγ and pHD(X3)-luc for PPARα, were kind gifts of Drs. TM McIntyre (University of Utah, USA) and RA Rachubinski (University of Alberta, Canada), respectively. PPRE-luc for PPARδ was constructed based on the previous report by insertion of the annealed oligonucleotides having four copies of the CYP4A6 PPRE (4 × […]) into the upstream of the luciferase coding sequence in pGL3-promoter vector (Promega, Madison, WI, USA). pCMVβGal was purchased from Clontech (Palo Alto, CA, USA). The mouse 3T3-L1 preadipocyte cell line, skeletal muscle C2C12 cell line, and macrophage RAW267.4 cell line and the human osteosarcoma U2OS cell line were obtained from the American Type Culture Collection (ATCC, Rockville, MD, USA). […]
Total RNA was extracted from cells or tissues with an RNeasy minikit (Qiagen, Valencia, CA, USA). […] PCR products were analyzed by electrophoresis on a 1.5% agarose gel stained with ethidium bromide. […]

[4] = biological target: T1, PPARγ (Homo sapiens, UniProt P37231); test: PPARγ transactivation reporter gene assay in U2OS cells; format: cell-based
T1 construct: expressed in transfected cells; host or cells: SMMC-7721 or U2OS
T1 sequence (P37231 1-505): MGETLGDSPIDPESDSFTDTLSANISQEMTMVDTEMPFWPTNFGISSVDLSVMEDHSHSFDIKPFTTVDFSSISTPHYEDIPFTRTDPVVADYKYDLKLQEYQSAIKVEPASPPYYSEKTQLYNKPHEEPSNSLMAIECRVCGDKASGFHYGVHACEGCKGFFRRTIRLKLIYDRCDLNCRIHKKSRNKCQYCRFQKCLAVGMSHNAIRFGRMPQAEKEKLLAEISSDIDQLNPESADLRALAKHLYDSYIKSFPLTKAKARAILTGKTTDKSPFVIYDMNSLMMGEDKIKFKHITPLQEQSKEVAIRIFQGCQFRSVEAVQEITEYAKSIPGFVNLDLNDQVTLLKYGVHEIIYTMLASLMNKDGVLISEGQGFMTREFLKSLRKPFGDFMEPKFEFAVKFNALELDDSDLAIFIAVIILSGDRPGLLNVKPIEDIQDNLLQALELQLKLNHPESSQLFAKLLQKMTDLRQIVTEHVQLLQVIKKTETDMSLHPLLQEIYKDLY
T1 sequence (P19793 1-462 partner): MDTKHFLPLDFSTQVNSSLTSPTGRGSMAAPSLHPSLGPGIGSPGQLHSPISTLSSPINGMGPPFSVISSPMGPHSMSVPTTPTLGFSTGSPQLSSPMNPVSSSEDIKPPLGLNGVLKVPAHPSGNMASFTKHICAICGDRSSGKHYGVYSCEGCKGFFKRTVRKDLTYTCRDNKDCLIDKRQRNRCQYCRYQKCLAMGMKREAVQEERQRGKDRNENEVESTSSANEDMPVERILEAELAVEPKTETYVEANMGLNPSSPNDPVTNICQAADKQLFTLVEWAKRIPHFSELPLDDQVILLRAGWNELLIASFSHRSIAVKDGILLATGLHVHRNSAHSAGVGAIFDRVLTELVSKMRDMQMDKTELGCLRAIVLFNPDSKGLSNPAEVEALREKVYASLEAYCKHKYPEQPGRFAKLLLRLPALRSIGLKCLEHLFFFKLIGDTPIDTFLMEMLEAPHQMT

`O=C(c1ccc(F)cc1)c1ccccc1NC(Cc1ccc(OCCn2c3ccccc3c3ccccc32)cc1)C(=O)O` (centres unmarked) [Chi, 2-[(2-(4-fluorobenzoyl)phenyl)amino]-3-[4-(2-carbazolylethoxy)-phenyl]-propionic acid] was tested, and the Heart weight [1] was “did not induce significant increase”, the “Expression of UCP1 in adipose tissue” value [2] was “greater degree of upregulation” and the “Expression of PPARγ downstream genes SREBP1 and adiponectin” value [3] was “upregulated”. For the same molecule, the EC50 ([4]; 24 h treatment, luciferase reporter, hRXR cotransfected, ia: inactive at 10 μM) was 80 ± 20 nM and the “PPARγ % Max” value ([4]; max response compared with Ros at 1 μM) was 117%.
